We go through 32 compounds from ChEMBL document CHEMBL3727355, “Chemokine receptor activity regulator” (2014).

For orientation: inhibition means the drop in the measured response relative to a control, in per cent.

Molecules are shown by their SMILES.

The target in this test is T1, C-C chemokine receptor type 10 (Homo sapiens) (UniProt P46092).
T1 sequence (whole entry): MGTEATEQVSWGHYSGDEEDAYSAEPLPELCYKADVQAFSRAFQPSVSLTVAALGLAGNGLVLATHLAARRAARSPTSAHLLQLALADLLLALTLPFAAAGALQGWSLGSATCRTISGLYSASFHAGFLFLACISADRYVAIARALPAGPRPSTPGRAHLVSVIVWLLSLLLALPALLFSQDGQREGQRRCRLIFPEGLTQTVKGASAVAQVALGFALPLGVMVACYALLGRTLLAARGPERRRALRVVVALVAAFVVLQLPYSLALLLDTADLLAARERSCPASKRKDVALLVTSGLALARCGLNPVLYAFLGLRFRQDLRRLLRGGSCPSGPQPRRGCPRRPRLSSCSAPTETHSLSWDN
The test is described as follows: Antagonist activity against human CCR10 expressed in human KJMGER8 cells assessed as inhibition of human recombinant CTACK-induced increase in intracellular calcium level at 100 nmol/L pre-incubated for 30 mins before human recombinant CTACK stimulation for 5 mins by FLIPR assay. The format is functional, cell-based. For orientation: Calcium flux is commonly read through the fluorescence of an indicator in the cells.
On to `CCNC(=O)NS(=O)(=O)c1cnn2c(Nc3ccc(Cl)cc3Cl)c(C(=O)N3CCC(c4ccc(F)cc4)CC3)cnc12`, for which the inhibition worked out at 90.7%. Take `CCNC(=O)NS(=O)(=O)c1cnn2c(Nc3ccccc3Cl)c(C(=O)N3CCC(c4ccccc4)CC3)cnc12`: the inhibition came out at 92.4%.

With `Cc1cc(F)ccc1Nc1c(C(=O)N2CCC(c3ccccc3)CC2)cnc2c(S(=O)(=O)/N=C/N(C)C)cnn12`, the inhibition worked out at 68.9%. On to `Cc1ccc(F)c(Nc2c(C(=O)N3CCC4(CC3)OCc3ccccc34)cnc3c(S(=O)(=O)NC(=O)NC4CC4(F)F)cnn23)c1` (configuration not stated), for which the inhibition was more than 100%. Then `CCNS(=O)(=O)c1cnn2c(Nc3ccc(F)cc3C)c(C(=O)N3CCC(c4ccc(F)cc4)CC3)cnc12`, with more than 100%; and `CCC(=O)NS(=O)(=O)c1cnn2c(Nc3cc(C)ccc3Cl)c(C(=O)N3CC4(C3)CN(c3ccc(F)cc3)C4)cnc12`, with 90.2%; and `CCNC(=O)NS(=O)(=O)c1cnn2c(Nc3cc(Cl)ccc3F)c(C(=O)N3CCC(c4ccc(F)cc4)CC3)cnc12`, with more than 100%. Then `O=C(NS(=O)(=O)c1cnn2c(NCc3ccccc3)c(C(=O)N3CCC(c4ccccc4)CC3)cnc12)C1CC1`, with 89.4%; and `CC(=O)NS(=O)(=O)c1cnn2c(Nc3cc(F)ccc3F)c(C(=O)N3CCC(c4ccc(F)cc4)CC3)cnc12`, with more than 100%; and `CCNC(=O)NS(=O)(=O)c1cnn2c(Nc3cc(C)ccc3Cl)c(C(=O)N3CCC4(CC3)OCc3ccccc34)cnc12`, with 95.2%.

For the compound `O=C(c1cnc2c(S(=O)(=O)Nc3ncccn3)cnn2c1Nc1cc(Cl)ccc1Cl)N1CCC(c2ccc(F)cc2)CC1`, the inhibition was more than 100%. Then `Cc1cc(F)ccc1Nc1c(C(=O)N2CCC(c3ccccc3)CC2)cnc2c(S(=O)(=O)NC(=O)C3CC3)cnn12`, with 93.4%; and `O=C(NS(=O)(=O)c1cnn2c(Nc3cc(Cl)ccc3Cl)c(C(=O)N3CCC4(CC3)OCc3ccccc34)cnc12)C1CC1`, with more than 100%; and `O=C(c1cnc2c(S(=O)(=O)Nc3nncs3)cnn2c1Nc1cc(Cl)ccc1Cl)N1CCC(c2ccc(F)cc2)CC1`, with more than 100%. As to `COC(=O)NS(=O)(=O)c1cnn2c(Nc3cc(C)ccc3C)c(C(=O)N3CCC(c4ccccc4)CC3)cnc12`, the inhibition is more than 100%. With `Cc1ccc(Cl)c(Nc2c(C(=O)N3CCC(c4ccc(F)cc4)CC3)cnc3c(S(=O)(=O)NC(N)=O)cnn23)c1`, the inhibition is more than 100%. On to `COCCNS(=O)(=O)c1cnn2c(Nc3ccccc3Cl)c(C(=O)N3CCC(c4ccc(F)cc4)CC3)cnc12`, for which the inhibition turned out to be 28.9%. As for `CCNS(=O)(=O)c1cnn2c(Nc3ccc(F)cc3C)c(C(=O)N3CCC(c4ccccc4)CC3)cnc12`, the inhibition is more than 100%. Then `CCC(=O)NS(=O)(=O)c1cnn2c(Nc3ccc(C)cc3Cl)c(C(=O)N3CCC(c4ccc(F)cc4)CC3)cnc12`, with 98.3%; and `CONS(=O)(=O)c1cnn2c(Nc3cc(Cl)ccc3Cl)c(C(=O)N3CCC(c4ccc(F)cc4)CC3)cnc12`, with more than 100%; and `CCC(=O)NS(=O)(=O)c1cnn2c(Nc3cc(C(F)(F)F)ccc3Cl)c(C(=O)N3CCC(c4ccc(F)cc4)CC3)cnc12`, with more than 100%. Regarding `CNCC(=O)NS(=O)(=O)c1cnn2c(Nc3ccc(F)cc3C)c(C(=O)N3CCC(c4ccccc4)CC3)cnc12`, the inhibition turned out to be 58.8%. Then `COC(=O)NS(=O)(=O)c1cnn2c(Nc3ccccc3Cl)c(C(=O)N3CCC(c4ccccc4)CC3)cnc12`, with 99.6%. As to `CCNC(=O)NS(=O)(=O)c1cnn2c(Nc3cc(C)ccc3Cl)c(C(=O)N3CC4(C3)CN(c3ccc(F)cc3)C4)cnc12`, the inhibition was determined as 24.3%. Then `Cc1cc(F)ccc1Nc1c(C(=O)N2CCC(c3ccc(F)cc3)CC2)cnc2c(S(=O)(=O)NCC(F)(F)F)cnn12`, with more than 100%; and `CCNC(=O)NS(=O)(=O)c1cnn2c(Nc3ccccc3Cl)c(C(=O)N3CCC(c4ccc(F)cc4)CC3)cnc12`, with more than 100%; and `CCNC(=O)NS(=O)(=O)c1cnn2c(Nc3ccc(Cl)cc3C)c(C(=O)N3CCC4(CC3)OCc3ccccc34)cnc12`, with more than 100%. To `CC(=O)NS(=O)(=O)c1cnn2c(Nc3cc(Cl)ccc3Cl)c(C(=O)N3CCC(c4ccc(F)cc4)CC3)cnc12` belongs more than 100%. As to `Cc1cc(Nc2c(C(=O)N3CCC(c4ccc(F)cc4)CC3)cnc3c(S(=O)(=O)NC(=O)C4CC4)cnn23)c(Cl)cc1F`, the inhibition is more than 100%. Then `CCNC(=O)NS(=O)(=O)c1cnn2c(Nc3cc(C)ccc3Cl)c(C(=O)N3CCC(c4ccc(F)cc4)CC3)cnc12`, with more than 100%.

Regarding `CCNC(=S)NS(=O)(=O)c1cnn2c(Nc3ccc(F)cc3C)c(C(=O)N3CCC(c4ccccc4)CC3)cnc12`, the inhibition was determined as 81.8%.

Regarding `CCC(=O)NS(=O)(=O)c1cnn2c(Nc3ccc(F)cc3Cl)c(C(=O)N3CCC4(CC3)OCc3ccccc34)cnc12`, the inhibition is more than 100%.
